# Source: PubChem BioAssay (NCI)
# Where “and” joins values, the source holds several entries; their conditions need not be identical. Identical values can stand only once.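 96-well plates; 48 h exposure; 5 concentrations. Endpoints by linear interpolation between flanking doses. Not reached: highest tested concentration assigned. GI50 = concentration required for 50% inhibition of growth. TGI marks complete inhibition of growth.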
# Legend:
# Test in all cases: growth of human tumour cells (NCI), 48 h
# OVCAR-5 ovarian = test system: OVCAR-5 ovarian
# SW-620 colon = test system: SW-620 colon
# HOP-92 NSCLC = test system: HOP-92 NSCLC
# COLO 205 colon = test system: COLO 205 colon
# SK-MEL-2 melanoma = test system: SK-MEL-2 melanoma
# A498 renal = test system: A498 renal
# TK-10 renal = test system: TK-10 renal
# A549 NSCLC = test system: A549 NSCLC
# UACC-257 melanoma = test system: UACC-257 melanoma
# SNB-19 CNS = test system: SNB-19 CNS
Compound,GI50 (OVCAR-5 ovarian),TGI (OVCAR-5 ovarian) [µM],GI50 (SW-620 colon),TGI (SW-620 colon),GI50 (HOP-92 NSCLC),TGI (HOP-92 NSCLC),GI50 (COLO 205 colon),TGI (COLO 205 colon),GI50 (SK-MEL-2 melanoma),TGI (SK-MEL-2 melanoma),GI50 (A498 renal),TGI (A498 renal),GI50 (TK-10 renal),TGI (TK-10 renal),GI50 (A549 NSCLC),TGI (A549 NSCLC),GI50 (UACC-257 melanoma),TGI (UACC-257 melanoma),GI50 (SNB-19 CNS),TGI (SNB-19 CNS)
CN(C)c1ccc2cc(-c3ccccc3F)c(N)nc2c1,3.55 µM,17.8,0.636 µM,17.2 µM,1.4 µM,9.7 µM,1.38 µM,6.35 µM,2.05 µM,15 µM,2.32 µM,15.2 µM,3.83 µM,16.2 µM,2.46 µM,16.4 µM,6.12 µM,18.3 µM,3.1 µM,19.2 µM
CC1OC2CC(=O)OC2C2=C1C(=O)c1c(O)c3c(c(O)c1C2=O)C1CC(O)C3(O)C(C)O1 (stereo unspecified),0.292 µM,0.879,0.168 µM,0.774 µM,1.06 µM,3.56 µM,0.186 µM,0.453 µM,0.701 µM,2.26 µM,1.65 µM,3.42 µM,0.302 µM,1.12 µM,0.869 µM,7.74 µM,0.212 µM,0.525 µM,1.94 µM,5.84 µM
CN=S(=O)(c1ccccc1)c1ccccc1,,> 100,,> 100 µM,,> 100 µM,,> 100 µM,,> 100 µM,,> 100 µM,,> 100 µM,,> 100 µM,,> 100 µM,,> 100 µM
CCC12CCCC(=O)N1C(CO)C(c1ccccc1)O2 (stereo unspecified),,> 100,,> 100 µM,,> 100 µM,,> 100 µM,,> 100 µM,,> 100 µM,,> 100 µM,,> 100 µM,,> 100 µM,,> 100 µM
CC1C(=O)C(C)C(c2ccccc2)N(N=O)C1c1ccccc1 (stereo unspecified),,> 881,> 1000 µM,> 1000 µM,107 µM,78.4 µM and 264 µM,,> 674 µM,,623 µM,,696 µM,,640 µM,,> 1000 µM,,> 897 µM,312 µM,> 830 µM
CC(=O)NC1=C(C)C(=O)c2c(nc3n2CCC3O)C1=N (stereo unspecified),,36.6,,26.4 µM,,15.3 µM,,33.4 µM,,22 µM,,59.6 µM,,85.4 µM,,> 100 µM,,13.2 µM,,50.4 µM
CC(=O)Nc1ccc2c(c1)oc(=O)c1cc(NC(C)=O)ccc12,> 100 µM,> 100,> 100 µM,> 100 µM,29.6 µM,> 100 µM,41.7 µM,> 100 µM,> 100 µM,> 100 µM,> 100 µM,> 100 µM,98.7 µM,> 100 µM,> 100 µM,> 100 µM,> 100 µM,> 100 µM,> 100 µM,> 100 µM
C[C@@H]1CN(CC(=O)N2CC(C)(C)c3nc(CO)c(Cc4ccc(F)cc4)cc32)[C@@H](CN2CCOC[C@H]2C)CN1,> 100 µM,> 100,> 100 µM,> 100 µM,3.79 µM,19.7 µM,21.3 µM,41.4 µM,5.01 µM,63.9 µM,25.8 µM,96.2 µM,> 100 µM,> 100 µM,> 100 µM,> 100 µM,15.3 µM,31.1 µM,> 100 µM,> 100 µM
Fc1cccc(COc2ccc(Nc3ncnc4cc(-c5ccc[nH]5)sc34)cc2Cl)c1,2.22 µM,24.9,8.56 µM,> 25 µM,0.31 µM,2.39 µM,5.47 µM,17.5 µM,6.77 µM,> 25 µM,2.27 µM,> 17.7 µM,0.482 µM,2.64 µM,0.789 µM,4.8 µM,9.38 µM,> 25 µM,2.22 µM,> 25 µM
O=C1C(Cl)=C(Nc2cccc(O)c2)C(=O)N1c1cc(Cl)c(Cl)cc1Cl,24.2 µM,48.2,15.2 µM,28.9 µM,12.5 µM,26.2 µM,18 µM,38 µM,15 µM,29.6 µM,,7.84 µM,23.8 µM,48.6 µM,21.7 µM,47.5 µM,30.3 µM,77.2 µM,20.4 µM,45.5 µM
COc1ccc(-c2cn(-c3ccccc3)c(-c3ccccc3)n2)cc1OC,7.33 µM,20.9,3.69 µM,18.5 µM,1.82 µM,10.8 µM,2.68 µM,12.3 µM,7.06 µM,22.5 µM,18.7 µM,34.8 µM,12.2 µM,26.1 µM,3.71 µM,16 µM,4.84 µM,16.8 µM,7.5 µM,21.1 µM
O=C1C2=C(c3ccccc31)C(c1ccccc1)NC(=S)N2 (stereo unspecified),,> 100,,> 100 µM,,97.1 µM,,> 100 µM,,> 100 µM,,> 100 µM,,> 100 µM,,> 100 µM,,> 100 µM,,> 100 µM
N#C/C(=C\c1cccc(O)c1)C(N)=O,,> 100,,> 100 µM,,> 100 µM,,> 100 µM,,> 100 µM,,> 100 µM,,> 100 µM,,> 100 µM,,> 100 µM,,> 100 µM
Cn1ccnc1C(=O)/C=C/c1ccc(CC(=O)Nc2ccccc2)cc1,4.19 µM,14.7,2.75 µM,8.81 µM,6.63 µM,> 25 µM,3.77 µM,9.39 µM,5.06 µM,13.3 µM,6.08 µM,14.5 µM,7.44 µM,19.9 µM,6.6 µM,> 25 µM,6.98 µM,21.1 µM,1.9 µM,11.9 µM
CCCCn1cnc2c(SC)ncnc21,,> 100,,> 100 µM,,> 100 µM,,> 100 µM,,> 100 µM,,> 100 µM,,> 100 µM,,> 100 µM,,> 100 µM,,> 100 µM
COc1nc2nccc-2c2occn12,,> 100,,> 100 µM,,> 100 µM,,> 100 µM,,> 100 µM,,> 100 µM,,> 100 µM,,> 100 µM,,> 100 µM,,> 100 µM
COC(=O)C1C2C=CC(C2)N1[C@@H](C)c1ccccc1 (stereo partly specified),,> 100,,> 100 µM,,> 100 µM,,> 100 µM,,> 100 µM,,> 100 µM,,> 100 µM,,> 100 µM,,> 100 µM,,> 100 µM
OCc1ccc(-c2nn(Cc3ccccc3)c3ccccc23)o1,0.564 µM and 0.0852 µM,,13.3 µM and 12.3 µM,51.9 µM and 32.8 µM,10.4 µM and 12.2 µM,38.9 µM and 38.1 µM,8.05 µM and 5.73 µM,26.2 µM and 21.7 µM,16.6 µM and 30.7 µM,32.6 µM and > 100 µM,0.092 µM and 0.0445 µM,0.25 µM and 0.144 µM,0.253 µM and 0.489 µM,1.02 µM and 3.61 µM,15.6 µM and 18.5 µM,47.7 µM and > 56.9 µM,0.268 µM and 0.32 µM,0.972 µM and 1.59 µM,21.5 µM and 13.7 µM,96.7 µM and > 52 µM
COc1ccc2c3c(c(=O)n(C)c2c1OC)C=CC(C)(C)O3,,> 100,,> 100 µM,,76 µM,,40.2 µM,,> 100 µM,,71.7 µM,,> 100 µM,,> 100 µM,,> 100 µM,,> 100 µM
Clc1nc(Cl)c2ncn(Cc3ccc(COc4cccc(OCc5ccc(Cn6cnc7c(Cl)nc(Cl)nc76)cc5)c4)cc3)c2n1,49.8 µM,> 100,> 100 µM,> 100 µM,36.2 µM,> 100 µM,> 100 µM,> 100 µM,28.2 µM,> 100 µM,39.2 µM,> 100 µM,27 µM,> 100 µM,> 100 µM,> 100 µM,24.9 µM,> 100 µM,> 100 µM,> 100 µM
C=C1C(=O)O[C@H]2[C@H]1CC/C(COC(=O)N1CCC[C@H]1C(=O)Nc1ccc(OC)c(C(N)=O)c1O)=C\CC[C@@]1(C)O[C@@H]21,4.41 µM,18.2,1.64 µM,4.01 µM,1.23 µM,3.32 µM,1.6 µM,3.28 µM,6.58 µM,34.4 µM,9.17 µM,22.6 µM,1.92 µM,7.16 µM,14.7 µM,35.1 µM,2.88 µM,10.9 µM,7.62 µM,23.9 µM
CCOC(=O)NN1C(=O)C(=P(c2ccccc2)(c2ccccc2)c2ccccc2)C(C(=O)OCC)=C1C,,> 100,,> 100 µM,,> 100 µM,,> 100 µM,,> 100 µM,,> 100 µM,,> 100 µM,,> 100 µM,,> 100 µM,,> 100 µM
CC12CCC(=O)C=C1CCC1C2C(O)CC2(C)C(c3csc(N)n3)CCC12 (stereo unspecified),,> 100,,> 100 µM,,> 100 µM,,> 100 µM,,> 100 µM,,> 100 µM,,> 100 µM,,> 100 µM,,> 100 µM,,> 100 µM
CC(=O)OCC1OC(n2ccc(=O)[nH]c2=O)C(OC(C)=O)C1OC(C)=O (stereo unspecified),> 100 µM,> 100,> 100 µM,> 100 µM,> 100 µM,> 100 µM,> 100 µM,> 100 µM,> 100 µM,> 100 µM,> 100 µM,> 100 µM,> 100 µM,> 100 µM,> 100 µM,> 100 µM,> 100 µM,> 100 µM,> 100 µM,> 100 µM
CCN(Cc1ccccc1OC)c1ccc(CO)c(Cl)c1,0.123 µM,0.416,2.33 µM,17.5 µM,1.66 µM,8.51 µM,4.81 µM,14.4 µM,2.11 µM,10.9 µM,0.0454 µM,0.13 µM,0.0512 µM,0.372 µM,4.26 µM,19.8 µM,0.162 µM,0.498 µM,13.7 µM,31.8 µM
Clc1nc(Cl)c2c(ncn2C/C=C\Cn2cnc3c(Cl)nc(Cl)nc32)n1,1.96 µM,3.74,0.776 µM,2.12 µM,1.89 µM,3.58 µM,1.46 µM,3.01 µM,1.41 µM,2.73 µM,12.4 µM,25.6 µM,1.85 µM,3.45 µM,2.38 µM,5.99 µM,1.48 µM,5.9 µM,1.66 µM,3.16 µM
O=C(CCl)N1c2ccccc2Sc2c1ccc1ccccc21,2.16 µM,5.07,1.66 µM,3.68 µM,1.04 µM,5.32 µM,1.87 µM,4.06 µM,17.4 µM,32.9 µM,12.9 µM,25.9 µM,3.86 µM,11.5 µM,9.52 µM,30.3 µM,2.24 µM,5.6 µM,4.37 µM,15.1 µM
C=C(C)C(=O)O[C@H]1[C@H]2[C@H](OC(=O)[C@H]2C)[C@H](O)[C@@H](C)[C@@H]2C=CC(=O)[C@]21C,,54,,10.7 µM,,8.89 µM,,9.97 µM,,18.4 µM,,6.56 µM,,8.09 µM,,12.5 µM,,7.73 µM,,18.6 µM
CN(C)CCCN1CCc2c([nH]c3ccccc23)C1c1cccnc1 (stereo unspecified),,> 100,,> 100 µM,,> 100 µM,,> 100 µM,,> 100 µM,,> 100 µM,,> 100 µM,,> 100 µM,,> 100 µM,,> 100 µM
C[C@H]1[C@H](C)CC[C@]2(C(=O)O)CC[C@]3(C)C(=CC[C@@H]4[C@@]5(C)C/C(=C/c6cccnc6)[C@H](O)C(C)(C)[C@@H]5CC[C@]43C)[C@H]12,20.9 µM,64.8,20.9 µM,> 100 µM,13.8 µM,67.7 µM,14.6 µM,32.4 µM,13.9 µM,44.4 µM,> 100 µM,> 100 µM,28.4 µM,> 100 µM,5.27 µM,62.4 µM,21 µM,81.2 µM,20.5 µM,> 100 µM
